Measured values reported in patent publication US20130197043A1, “USE OF THE FETAL REPROGRAMMING OF A PPAR AGONIST” (SNU R&DB FOUNDATION, priority 2010, published 2013).
pEC50: −log10 of the molar value.

Columns and labels:
[1] = biological target: T1, hPPARa (Homo sapiens, UniProt Q07869); test: Transfection assay in CV-1 cells, hPPARa; type: cell-based; conditions: luciferase reporter
T1 construct: expressed in transfected cells; host or cells: CV-1 cells
T1 sequence (Q07869 1-468): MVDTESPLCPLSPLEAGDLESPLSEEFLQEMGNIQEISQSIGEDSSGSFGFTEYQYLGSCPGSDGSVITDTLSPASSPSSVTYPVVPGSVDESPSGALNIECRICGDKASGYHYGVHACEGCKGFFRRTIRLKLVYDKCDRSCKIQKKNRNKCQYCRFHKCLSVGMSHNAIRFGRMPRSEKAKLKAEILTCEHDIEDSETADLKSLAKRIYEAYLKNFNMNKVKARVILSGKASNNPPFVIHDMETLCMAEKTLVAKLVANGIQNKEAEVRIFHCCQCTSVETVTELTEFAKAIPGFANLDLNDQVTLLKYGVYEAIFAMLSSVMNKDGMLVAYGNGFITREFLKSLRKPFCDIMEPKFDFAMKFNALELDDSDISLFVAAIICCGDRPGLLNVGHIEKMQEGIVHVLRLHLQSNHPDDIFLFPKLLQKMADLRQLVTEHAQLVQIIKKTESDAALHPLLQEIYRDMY
Description: (§1) This assay was conducted by using CV-1 cells. The cells were cultured on a 96-well plate with a DMEM medium containing 10% FBS, DBS (delipidated), and 1% penicillin/streptomycin in 37° C. of an incubator 5% of carbon dioxide. Test was conducted in four stages of cell inoculation, transfection, treatment with the developed material, and result confirmation. The CV-1 cells were inoculated on the 96-well plate at a cell density at 5,000 cells/well, and after 24 hours, transfection was performed. PPARs plasmid DNA, reporter DNA, and β-galactosidase DNA were mixed with a transfection reagent, and then used to treat the cells. The developed material was dissolved in dimethylsulfoxide (DMSO), and then was used to treat the cells by using media at various concentrations. After 24 hours of culturing in an incubator, the cells were lysed with a lysis buffer and luciferase activity and β-galactosidase activity were measured using a luminometer and a microplate reader. The measured luciferase value was calibrated with the β-galactosidase value, and this value was depicted on a graph and EC50 was determined.

[2] = biological target: T2, hPPARg (Homo sapiens, UniProt P37231); test: Transfection assay in CV-1 cells, hPPARg; type: cell-based; conditions: luciferase reporter
T2 construct: expressed in transfected cells; host or cells: CV-1 cells
T2 sequence (P37231 1-505): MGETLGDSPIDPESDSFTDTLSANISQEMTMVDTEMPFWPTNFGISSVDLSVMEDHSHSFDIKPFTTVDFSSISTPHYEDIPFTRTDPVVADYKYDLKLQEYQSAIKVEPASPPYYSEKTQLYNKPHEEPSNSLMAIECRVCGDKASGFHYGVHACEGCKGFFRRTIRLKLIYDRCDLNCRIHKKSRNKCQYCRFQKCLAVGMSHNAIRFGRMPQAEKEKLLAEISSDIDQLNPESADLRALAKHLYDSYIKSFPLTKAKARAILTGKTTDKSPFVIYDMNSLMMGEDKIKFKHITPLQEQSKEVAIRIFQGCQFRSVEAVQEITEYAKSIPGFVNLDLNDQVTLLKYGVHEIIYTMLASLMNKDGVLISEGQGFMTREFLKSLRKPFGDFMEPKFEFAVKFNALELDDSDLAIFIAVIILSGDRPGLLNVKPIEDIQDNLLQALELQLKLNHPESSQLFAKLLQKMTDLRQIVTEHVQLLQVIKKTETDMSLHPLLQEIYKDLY
Description: as §1

[3] = biological target: T3, hPPAR δ (Homo sapiens, UniProt Q03181); test: Transfection assay in CV-1 cells, hPPAR δ; type: cell-based; conditions: luciferase reporter
T3 construct: expressed in transfected cells; host or cells: CV-1 cells
T3 sequence (Q03181 1-441): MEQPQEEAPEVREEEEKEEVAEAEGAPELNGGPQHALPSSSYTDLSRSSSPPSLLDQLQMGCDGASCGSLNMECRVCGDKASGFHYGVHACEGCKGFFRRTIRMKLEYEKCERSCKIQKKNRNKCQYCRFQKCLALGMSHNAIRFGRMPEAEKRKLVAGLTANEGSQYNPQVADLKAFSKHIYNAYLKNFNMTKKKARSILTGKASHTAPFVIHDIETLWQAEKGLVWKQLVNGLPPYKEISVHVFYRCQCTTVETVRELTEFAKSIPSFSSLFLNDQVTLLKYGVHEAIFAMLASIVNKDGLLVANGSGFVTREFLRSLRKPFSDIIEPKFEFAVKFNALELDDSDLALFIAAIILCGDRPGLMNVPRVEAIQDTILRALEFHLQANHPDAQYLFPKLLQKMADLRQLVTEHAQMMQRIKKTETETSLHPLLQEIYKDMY
Description: as §1

[4] = test system: mice subjected to fetal reprogramming; test: Treadmill endurance test of mice subjected to fetal reprogramming; type: in vivo
Description: Before the experiment, mice were exercised for 5 minutes at a speed of 7 meters/min for two days so as to be adapted to exercising equipment. On day 3, the main experiment was conducted. As for the method for experiment, the mice were made to run at a speed of 10 meter/min for 60 minutes, and after that, the speed was increased at 1 meter/min once every 15 minutes until the maximum speed reaches 15 meters/min. As for the male mice, the running time was increased by 2.9 fold ([…], P<0.0001, n=6) and the running distance was increased by 3.0 fold (9927±1168 versus 3303±394 m, P<0.0001) in the PPAR δ agonist (CMDD1111)-administered mouse group than the control mouse group.
The Experiment using pregnant C57BL/6 mice was conducted in order to verify an endurance enhancement effect by fetal reprogramming of CMDD1226. […]
The experiment for verifying the fetal reprogramming effect of GW501516 and determining the optimum administration period thereof was conducted. The experiment method was shown in FIG. 1, and the experiment was conducted with respect to three kinds of administration periods (gestation period, lactation period, and both of gestation and lactation periods). As the experiment result, the group administered with PPAR δ agonist only during the gestation period had 2.6-fold and 3.2-fold increases in the running time and the running distance, respectively, and the group administered with PPAR δ agonist only during the lactation period had 2.4-fold and 3.0-fold increases in the running time and the running distance, respectively, as compared with the control group. The group administered with PPAR δ agonist during both the gestation and lactation periods had the most obvious increase in endurance, and had 5.1-fold and 6.6-fold increases as compared with the control group (FIG. 22).
The animal test was conducted in order to verify the muscle endurance enhancement and muscular function improvement effects of the material according to the present invention. […] […] The test using a treadmill was conducted in order to confirm the effect of this muscular fiber change on muscle endurance enhancement and muscular function improvement.

[5] = test system: HDL in serum; test: High-density lipoprotein cholesterol (HDL) in serum; type: in vivo; conditions: mice fed 10% fat feedstuff over 6 weeks
Source text: High-density lipoprotein cholesterol (HDL) has been known to play an important role in treating lipid metabolic disorders such as arteriosclerosis and hyperlipidemia while lowering the cholesterol level of an epidermal cell and mitigating an inflammatory reaction. Serum was separated from the mice fed over a 6-week period of feedstuff containing 10% fat in order to confirm the high-density cholesterol increase effect of Compounds 5 and 9, which were the developed materials of the present invention.

[6] = test system: slow muscle fibers and endurance; conditions: cited from earlier work
[7] = C57BL/6, maternal 10 mg/kg/day gestation and lactation, 7-week old
[8] = administered during both gestation and lactation periods
[9] = administered only during the gestation period
[10] = administered only during the lactation period

For `Cc1cc(SC(Cc2ccc(-c3ccc(C(F)(F)F)cc3)cc2)c2sc(-c3ccc(C(F)(F)F)cc3)nc2C)ccc1OCC(=O)O` (stereo not drawn) [Compound 17], the “EC50 hPPARa” value [1] was “ia”, the “EC50 hPPARg” value [2] was “ia” and the pEC50 [3] was 8.19.

In the case of `Cc1cc(SC(Cc2ccc(-c3ccc(C(F)(F)F)cc3)nc2)c2sc(-c3ccc(C(F)(F)F)cc3)nc2C)ccc1OCC(=O)O` (stereo not drawn) [Compound 21], the “EC50 hPPARa” value [1] was “ia”, the “EC50 hPPARg” value [2] was “ia” and the pEC50 [3] was 7.97.

For `CCOC(=O)COc1ccc(SC(Cc2ccc(-c3ccc(F)c(Cl)c3)cc2)c2sc(-c3ccc(C(F)(F)F)cc3)nc2C)cc1C` (stereo not drawn) [Compound 28], the “EC50 hPPARa” value [1] was “ia”, the “EC50 hPPARg” value [2] was “ia” and the pEC50 [3] was 8.34.

With `Cc1cc(SC(Cc2c(F)cccc2Cl)c2sc(-c3ccc(C(F)(F)F)cc3)nc2C)ccc1OCC(=O)O` (stereo not drawn) [CMDD1112] the endurance enhancement effect ([4]; 1 mg/kg/day) was “not exhibited”, the endurance enhancement effect ([4]; 2 mg/kg/day) was “not exhibited” and the running distance enhancement ([4]; 5 mg/kg/day) was 1.5 fold. The running time enhancement ([4]; 5 mg/kg/day) was 1.4 fold.

With `Cc1cc(SC(Cc2ccc(-c3cc(F)c(F)c(F)c3)cc2)c2sc(-c3ccc(C(F)(F)F)cc3)nc2C)ccc1OCC(=O)O` (stereo not drawn) [Compound 13] the “EC50 hPPARa” value [1] was “ia”, the “EC50 hPPARg” value [2] was “ia” and the pEC50 [3] was 8.06.

In the case of `Cc1cc(SC(Cc2cc(-c3ccc(F)cc3)no2)c2sc(-c3ccc(C(F)(F)F)cc3)nc2C)ccc1OCC(=O)O` (stereo not drawn) [Compound 33], the “EC50 hPPARa” value [1] was “ia”, the “EC50 hPPARg” value [2] was “ia” and the pEC50 [3] was 7.38.

With `Cc1cc([Se]C(Cc2ccccc2)c2sc(-c3ccc(C(F)(F)F)cc3)nc2C)ccc1OCC(=O)O` (stereo not drawn) [CMDD1226] the “increase in the running distance versus control” value [4, 7] was 2.0 fold and the “increase in the running time versus control” value [4, 7] was 1.9 fold.

For `Cc1cc(SCc2sc(-c3ccc(C(F)(F)F)cc3)nc2C)ccc1OCC(=O)O` [GW501516, reference compound], the “HDL increase in serum” value [5] is listed as 29%, the “improvement in slow muscle fibers and endurance” value ([6]; administration alone to an adult) is listed as “did not show improvement” and the “slow muscle fibers and endurance” value ([6]; simultaneous combination of exercise and administration) is listed as “generated slow muscle fibers and enhanced endurance”. The “increase in the running distance versus control” value [4, 8] was 6.6 fold, the “increase in the running time versus control” value [4, 8] was 5.1 fold and the “increase in the running distance versus control” value [4, 9] was 3.2 fold. For the same compound, the “increase in the running time versus control” value [4, 9] was 2.6 fold, the “increase in the running distance versus control” value [4, 10] was 3.0 fold and the “increase in the running time versus control” value [4, 10] was 2.4 fold.

With `Cc1cc(SC(Cc2ccc(-c3cccc(C(F)(F)F)c3)cc2)c2sc(-c3ccc(C(F)(F)F)cc3)nc2C)ccc1OCC(=O)O` (stereo not drawn) [Compound 25] the “EC50 hPPARa” value [1] was “ia”, the “EC50 hPPARg” value [2] was “ia” and the pEC50 [3] was 8.21.
